{"source": "patent US12708620B2", "about": "“Prodrugs and medical uses thereof” (priority 2018, dated 2026)", "key": {"[1]": {"system": "panel of cancer cell lines", "test": "formation rate of Cpd.11c and Cpd.11d metabolites in cancer cell lines", "format": "in vitro ADME, human", "text": "FIG. 3: cytotoxicity of Cpd.11 Ms and metabolites in normoxic and anoxic conditions in a panel of human cancer cell lines. […] The same panel of cell lines has been used to calculate the formation rate of Cpd.11c and Cpd.11d metabolites (B). A panel of human cell lines isolated from lung cancer (A-427, […], NCI-460, NCI-H1975), pancreatic cancer (Hs 766T, BxPC-3, Capan-1), and breast cancer (MDA-MB-453, SK-BR-3, EFM-19, Hs578t) has been exposed to synthetic version of Cpd.11c and Cpd.11d metabolites, that present cytotoxic properties also in normoxic conditions (C). The average plating efficiency in the drug-free control wells was 43% under normoxic and 30% under anoxic conditions."}, "[2]": {"system": "MiaPaCa-2 tumor xenograft", "test": "pancreatic cancer xenograft model", "format": "in vivo, BALB/c Nude Mice", "conditions": "MiaPaCa-2 xenograft, 600 mg/kg IP, hypoxic status absent, methanesulfonate", "procedure": "All animal models were established as xenograft model in BALB/c Nude Mice (6-8 weeks old, 17-23 grams, maintained in standard conditions and diet), following approved IACUC (Institutional Animal Care and Use Committees) protocols. Cpd.11 Ms was formulated using 2% dimethyl sulfoxide (DMSO in water for injection, starting from a Cpd.11 Ms main preparation (100-60 mg/ml in 2% DMSO in water for injection).\nAfter tumor cell inoculation, the animals were checked daily for morbidity and mortality. Before commencement of treatment all animals were weighed and the tumor volumes were measured using a caliper. The treatments were started when the mean tumor size reached approx. 250 mm^3. […] At the time of routine monitoring, the animals were checked for any effects of tumor growth and treatments on normal behavior such as mobility, visual estimation of food and water consumption, body weight gain/loss (body weights were measured daily during the 5-day treatment and thrice weekly after treatment), eye/hair matting and any other abnormal effect. Death and observed clinical signs were recorded on the basis of the numbers of animals within each subset. […] The surrogate endpoint for survival was calculated and indicated as TVx4 (initial tumor volume times 4). […] All data were analyzed in SPSS (Statistical Product and Service Solutions) version 18.0 (IBM, Armonk, NY, U.S.). […]"}, "[3]": {"test": "preliminary toxicology study, intravenous administration", "format": "in vivo, dog", "procedure": "Preliminary toxicology studies of the intravenous administration of Cpd.11 Ms in rats and dogs according to a dosing regimen consisting of 3 consecutive days of administration in a 3 weekly cycle (QDx3/cycle) have shown that potential haematological toxicity in tissues such as the bone marrow, the thymus and lymph nodes (known to have hypoxic niches) can be minimized at dosages at or below 400 mg/kg in the rat and at or below 100 mg/kg in the dog. As such, these levels correspond to 2360 mg/m^2 and 2000 mg/m^2, respectively, in human subjects. […] Alternative dosing regimens also include weekly administration for up to 3 or 4 consecutive times of each 3 or 4 weekly cycle. In addition, also an initial dose of QDx3 or QDx5 could be combined with less frequent administration schedules that may still allow a therapeutic effect over tumor growth and development, such as up to 3 or 4 weekly dosages in 3 to 4 weekly cycles, or once a month (or every three-four weeks) schedules that be applied with or without the parallel treatment with the appropriate standard-of-care protocols."}, "[4]": {"system": "SW1990", "test": "in vitro cell culture sensitivity in anoxic conditions", "format": "cell-based, human"}}, "data": [{"smiles": "CCN1CCN(C(=O)c2cc(N(CCBr)CCOS(C)(=O)=O)c(S(C)(=O)=O)cc2[N+](=O)[O-])CC1.CS(=O)(=O)O", "note": "[Cpd.11 Ms, 4-(5-((2-bromoethyl) (2-((methylsulfonyl)oxy)ethyl)amino)-4-(methylsulfonyl)-2-nitrobenzoyl)-1-ethylpiperazin-1-ium methanesulfonate]", "values": [{"measurement": "conversion of Cpd.11 Ms into Cpd.11c and Cpd.11d (FIG. 3B)", "setting": "[1]", "result": "strong and rapid ratio of conversion"}, {"measurement": "Anti-tumor effect", "setting": "[2]; listed as Cpd.11Ms", "result": "No impact"}, {"measurement": "Anti-tumor effect", "setting": "[2]", "result": "not observed"}, {"measurement": "dosage at which potential haematological toxicity (bone marrow, thymus, lymph nodes) can be minimized", "setting": "[3]; dog, intravenous, QDx3 in a 3 weekly cycle", "result": "≤ 100", "unit": "mg/kg"}, {"measurement": "corresponding level in human subjects of the dog dosage", "setting": "[3]; from 100 mg/kg in the dog", "result": 2000, "unit": "mg/m^2"}, {"measurement": "sensitivity in anoxic conditions in vitro", "setting": "[4]", "result": "highly Cpd.11 Ms-sensitive"}]}]}
